The source of these data is patent US20150209364A1, “METHOD FOR TREATING EPIDERMOID CARCINOMA” (Johnpro Biotech Inc., priority 2011, published 2015).

The test has as its system erlotinib-resistant H1975 cells. The experiment in a line: cells. Format: cell-based. Conditions: Homo sapiens, NCI-H1975, 72 h, read-out: IC50 (cell viability). On the procedure:
The cells were plated at 5×10^4/ml in 100 μL of culture medium in a 96-well microtiter plate, followed by incubation with drugs. Cell viability after the treatment was determined using 3-(4,5-dimethylthiazol-2-yl)-5(3-carboxymethoxy-phenyl)-2-(4-sulfophenyl)-2H-tetrazolium (MTS) assay (Promega, Madison, Wis.) per the manufacturer's instruction. Absorbance was measured at 490 nm for MTS assay with an enzyme-linked immunosorbent assay plate reader from MTX Lab Systems, Inc. (Vienna, Va.). […] Each experiment was performed in triplicate, and the results were expressed as mean±SD.

Regarding `CCN(CC)CCCC(C)Nc1ccnc2cc(Cl)ccc12` (stereo not shown) [chloroquine], the IC50 (as a rule, the midpoint of a concentration-inhibition curve) was found to be 75 µM.
